Here are results for 14 compounds from patent US20120202701A1, “AN ANTIBODY-GLYCAN COMPLEX TARGETING THE DISIALYL CORE II AND SIALYL LEWIS X STRUCTURES, AND USES THEREOF INVOLVING ANALYSIS OF STEM CELLS OR CANCER CELLS” (GLYKOS FINLAND OY, priority 2009, published 2012).

The test system of one assay is mAb CSLEX. In words: Glycan microarray analysis (Consortium for Functional Glycomics, printed array version 4.0), glycan binding of mAb CSLEX. Conditions: mAb CSLEX at 50 μg/ml; average RFU of 6 replicates after removal of highest and lowest values. Here is the method: (§1) mAb CHO-131 was purchased from R&D Systems (MAB996). mAb CSLEX was purchased form BD Biosciences (551344). Glycan microarray analysis was carried out by the Consortium for Functional Glycomics. Glycan microarrays were printed as described (Blixt 2004). Version 4.0 of the printed glycan array was used for analysis. Binding analysis was performed at 50 μg/ml of antibody. Data are reported as average RFU of 6 replicates after removal of highest and lowest values.

The subject of the next assay is mAb CHO-131. In words: Glycan microarray analysis (Consortium for Functional Glycomics, printed array version 4.0), glycan binding of mAb CHO-131. Conditions: for RFU: mAb CHO-131 at 50 μg/ml, average RFU of 6 replicates after removal of highest and lowest values; for binding to CHO-131 antibody, in words: glycan microarray, as described. The protocol: as §1

`CC(=O)NC1C(OCCCN)OC(CO)C(OC2OC(COS(=O)(=O)O)C(O)C(OC3(C(=O)O)CC(O)C(NC(C)=O)C(C(O)C(O)CO)O3)C2O)C1O` (centres unmarked) [compound 43]: the RFU amounted to 12653 RFU with mAb CSLEX and 22706 RFU with mAb CHO-131.

As for `CC(=O)NC1C(O)CC(OC2C(O)C(COS(=O)(=O)O)OC(OC3C(CO)OC(OCCCN)C(NC(C)=O)C3OC3OC(C)C(O)C(O)C3O)C2O)(C(=O)O)OC1C(O)C(O)CO` (centres unmarked) [compound 220], the RFU in the assay on mAb CSLEX came out at 22795 RFU; in the assay on mAb CHO-131, 36255 RFU.

In the case of `CC(=O)NC1C(O)CC(OC2C(O)C(CO)OC(OC3C(CO)OC(OC4C(O)C(CO)OC(OC5C(CO)OC(OC6C(O)C(CO)OC(OC7C(CO)OC(OCCN)C(NC(C)=O)C7OC7OC(C)C(O)C(O)C7O)C6O)C(NC(C)=O)C5OC5OC(C)C(O)C(O)C5O)C4O)C(NC(C)=O)C3OC3OC(C)C(O)C(O)C3O)C2O)(C(=O)O)OC1C(O)C(O)CO` (centres unmarked) [compound 242], the RFU is on record as 31104 RFU in the assay on mAb CSLEX and 29505 RFU in the assay on mAb CHO-131.

Consider `CC(=O)NC1C(O)CC(OC2C(O)C(CO)OC(OC3C(CO)OC(OCCN)C(NC(C)=O)C3OC3OC(C)C(O)C(O)C3O)C2O)(C(=O)O)OC1C(O)C(O)CO` (centres unmarked) [compound 243], for which the RFU with mAb CSLEX was 13988 RFU. Further, in the assay on mAb CHO-131, the “binding to CHO-131 antibody, in words” value was “somewhat weaker binding” and the RFU was 20068 RFU.

Compound `CC(=O)NC1C(O)CC(OC2C(O)C(CO)OC(OC3C(CO)OC(OCCCN)C(NC(C)=O)C3OC3OC(C)C(O)C(O)C3O)C2O)(C(=O)O)OC1C(O)C(O)CO` (centres unmarked) [compound 244] had an RFU in the assay with mAb CSLEX of 19491 RFU. In the assay with mAb CHO-131, the “binding to CHO-131 antibody, in words” value was “ligand for the antibody” and the RFU was determined as 34336 RFU.

`CC(=O)NC1C(O)CC(OC2C(O)C(CO)OC(OC3C(CO)OC(OC4C(O)C(CO)OC(OCCCN)C4O)C(NC(C)=O)C3OC3OC(C)C(O)C(O)C3O)C2O)(C(=O)O)OC1C(O)C(O)CO` (centres unmarked) [compound 245] had an RFU with mAb CSLEX of 22997 RFU. For the same compound, in the assay on mAb CHO-131, the “binding to CHO-131 antibody, in words” value is recorded as “third best ligand structure” and the RFU is 33335 RFU.

Consider `CC(=O)NC1C(OCCCN)OC(CO)C(OC2OC(CO)C(O)C(OC3OC(CO)C(OC4OC(CO)C(O)C(OC5(C(=O)O)CC(O)C(NC(C)=O)C(C(O)C(O)CO)O5)C4O)C(OC4OC(C)C(O)C(O)C4O)C3NC(C)=O)C2O)C1O` (centres unmarked) [compound 246], for which the RFU with mAb CSLEX is reported as 27193 RFU; with mAb CHO-131 it was 24587 RFU.

In the case of `CC(=O)NC1C(OCCN)OC(CO)C(OC2OC(CO)C(O)C(OC3(C(=O)O)CC(O)C(NC(=O)CO)C(C(O)C(O)CO)O3)C2O)C1OC1OC(C)C(O)C(O)C1O` (centres unmarked) [compound 271], the results for the RFU with mAb CSLEX and with mAb CHO-131 were 4766 RFU and 9521 RFU, respectively.

Regarding `CC(=O)N[C@H]1[C@H](OCCN)O[C@H](COS(=O)(=O)O)[C@@H](O[C@@H]2O[C@H](COS(=O)(=O)O)[C@H](O)[C@H](O)[C@H]2O)[C@@H]1O` [compound 287], the RFU in the assay on mAb CSLEX is 29 RFU; with mAb CHO-131, 1306 RFU.

In turn, `CC(=O)N[C@H]1[C@H](OCCCN)O[C@H](CO)[C@@H](O[C@@H]2O[C@H](CO)[C@H](O)[C@H](O[C@@H]3O[C@H](CO)[C@H](O)[C@H](O)[C@H]3O)[C@H]2O)[C@@H]1O` [compound 291] showed an RFU with mAb CSLEX of 46 RFU.

In the assay with mAb CSLEX, `CC(=O)N[C@H]1[C@H](OCCN)O[C@H](CO)[C@@H](O[C@@H]2O[C@H](CO[C@H]3O[C@H](CO)[C@@H](O[C@@H]4O[C@H](CO)[C@H](O)[C@H](O)[C@H]4O)[C@H](O)[C@H]3NC(C)=O)[C@H](O)[C@H](O)[C@H]2O)[C@@H]1O` [compound 295] displayed an RFU of 30 RFU.

Take `CC(=O)NC1C(OCCCN)OC(CO)C(O)C1OC1OC(C(=O)O)C(O)C(O)C1O` (centres unmarked) [compound 299]: the RFU in the assay on mAb CSLEX stood at 39 RFU; in the assay on mAb CHO-131 it was 5434 RFU.

Regarding `CC(=O)NC1C(O)CC(OC2C(O)C(CO)OC(OC3C(NC(C)=O)C(OC4C(O)C(CO)OC(OC5C(NC(C)=O)C(OCCN)OC(CO)C5OC5OC(C)C(O)C(O)C5O)C4O)OC(CO)C3OC3OC(C)C(O)C(O)C3O)C2O)(C(=O)O)OC1C(O)C(O)CO` (centres unmarked) [compound 326], the RFU with mAb CSLEX is given as 42 RFU.

With `CC(=O)N[C@H]1[C@H](O[C@H]2[C@@H](O)[C@@H](CO)O[C@@H](O[C@H]3[C@H](O[C@@H]4O[C@@H](C)[C@@H](O)[C@@H](O)[C@@H]4O)[C@@H](NC(C)=O)[C@H](O[C@H]4[C@@H](O)[C@@H](CO)O[C@@H](O[C@H]5[C@H](O[C@@H]6O[C@@H](C)[C@@H](O)[C@@H](O)[C@@H]6O)[C@@H](NC(C)=O)[C@H](OCCN)O[C@@H]5CO)[C@@H]4O)O[C@@H]3CO)[C@@H]2O)O[C@H](CO)[C@@H](O[C@@H]2O[C@H](CO)[C@H](O[C@H]3O[C@H](CO)[C@@H](O)[C@H](O)[C@H]3NC(C)=O)[C@H](O)[C@H]2O)[C@@H]1O` [compound 337], the RFU with mAb CSLEX is listed as 41 RFU. Also, in the assay on mAb CHO-131, the “binding to CHO-131 antibody, in words” value is given as “some binding” and the RFU is given as 706 RFU.
